Data on 15 molecules can be found in ChEMBL document CHEMBL4342438, “Discovery of pyrazolone spirocyclohexadienone derivatives with potent antitumor activity” (Bioorg Med Chem Lett, 2020).

SMILES strings stand for the structures.

The subject of experiment [1] is MDA-MB-231. Nature of the experiment: Induction of cell cycle arrest in human MDA-MB-231 cells assessed as accumulation at G1 phase at 1 uM measured after 24 hrs by flow cytometry analysis (reference value: 43.68%). It counts as functional. (In general: In flow cytometry, cells or beads pass a laser one at a time.)
The subject of experiment [2] is MDA-MB-231. Nature of the experiment: Induction of apoptosis in human MDA-MB-231 cells assessed as apoptotic cells at 2.5 uM measured after 48 hrs by annexinV-FITC/propidium iodide staining based flow cytometry analysis (reference value: 5.62%). It counts as functional.
Experiment [3] concerns MDA-MB-231. Nature of the experiment: Induction of apoptosis in human MDA-MB-231 cells assessed as apoptotic cells at 5 uM measured after 48 hrs by annexinV-FITC/propidium iodide staining based flow cytometry analysis (reference value: 5.62%). The format is functional.
In experiment [4] the test system is HUVEC. Nature of the experiment: Cytotoxicity against HUVEC assessed as inhibition of cell growth measured after 72 hrs by CCK8 assay. It counts as cell-based. As to conditions: Homo sapiens.
Experiment [5] relates to MDA-MB-231. In words: Induction of apoptosis in human MDA-MB-231 cells assessed as apoptotic cells at 10 uM measured after 48 hrs by annexinV-FITC/propidium iodide staining based flow cytometry analysis (reference value: 5.62%). It counts as functional.
The test system of experiment [6] is A549. Nature of the experiment: Antiproliferative activity against human A549 cells assessed as reduction in cell growth measured after 72 hrs by CCK8 assay. It counts as functional, cell-based. The following applies: A549, 72 h. (In general: Tetrazolium dyes change colour on reduction, which living cells bring about.)
Experiment [7] relates to MDA-MB-231. In words: Induction of cell cycle arrest in human MDA-MB-231 cells assessed as accumulation at G2 phase at 2 uM measured after 24 hrs by flow cytometry analysis (reference value: 23.69%). It counts as functional.
Experiment [8] deals with HCT-116. In words: Antiproliferative activity against human HCT116 cells assessed as reduction in cell growth measured after 72 hrs by CCK8 assay. The format is functional, cell-based. The following applies: HCT-116, 72 h.
In experiment [9] the test system is MDA-MB-231. Nature of the experiment: Induction of apoptosis in human MDA-MB-231 cells assessed as increase in apoptotic cells measured after 48 hrs by annexinV-FITC/propidium iodide staining based flow cytometry analysis. It counts as functional, cell-based.
In experiment [10] the test system is MDA-MB-231. In words: Induction of cell cycle arrest in human MDA-MB-231 cells assessed as accumulation at G2 phase at 1 uM measured after 24 hrs by flow cytometry analysis (reference value: 23.69%). It counts as functional.
Experiment [11] has as its system MDA-MB-231. In words: Induction of cell cycle arrest in human MDA-MB-231 cells assessed as accumulation at S phase at 2 uM measured after 24 hrs by flow cytometry analysis (reference value: 32.63%). The format is functional.
For experiment [12], the system named is MDA-MB-231. In words: Antiproliferative activity against human MDA-MB-231 cells assessed as reduction in cell growth measured after 72 hrs by CCK8 assay. The format is functional, cell-based. As to conditions: MDA-MB-231, 72 h.
Experiment [13] relates to MDA-MB-231. Nature of the experiment: Induction of cell cycle arrest in human MDA-MB-231 cells assessed as accumulation at G1 phase at 2 uM measured after 24 hrs by flow cytometry analysis (reference value: 43.68%). The format is functional.
For experiment [14], the system named is MDA-MB-231. Nature of the experiment: Induction of cell cycle arrest in human MDA-MB-231 cells assessed as accumulation at S phase at 1 uM measured after 24 hrs by flow cytometry analysis (reference value: 32.63%). The format is functional.

A word on the IC50: it is the concentration at which inhibition is half-maximal.

With `CC1=NN(c2cccc(Cl)c2)C(=O)C12C=CC(=O)C=C2c1ccc(C)cc1` (stereo unspecified), the Activity in experiment [1] is 45.59 - 49.59%; in experiment [2], 9.7%; in experiment [3], 12.2%; in experiment [5], 47.23%; in experiment [7], 17.5%; in experiment [9], “Dose-dependent effect”. Besides, the Activity in [10] is given as 21.23%; in experiment [11], 14.27%; in experiment [13] it was 68.23%; in experiment [14] it was 29.18%. Also, the IC50 in [4] was 5.41 µM; in experiment [6], 9.05 µM; in experiment [8], 2.4 to 2.89 µM; in experiment [12] it was 3.82 µM.
For `CC1=NN(c2ccc(C)cc2)C(=O)C12C=CC(=O)C=C2c1ccccc1` (stereo unspecified), the figures for the IC50 in experiment [6], in experiment [8] and in [12] were 46.3 µM, 16.5 µM and 46.6 µM, respectively.
The corresponding values for `CC1=NN(c2ccccc2)C(=O)C12C=CC(=O)C=C2c1ccc(C)cc1` (stereo unspecified) are 19.3 µM, 27.1 µM and 91.9 µM.
As for `CC1=NN(c2ccccc2)C(=O)C12C=CC(=O)C=C2c1cccc(C)c1` (stereo unspecified), the IC50 in experiment [6] was 16.5 µM; in experiment [8] it was greater than 100 µM; in [12], 85.8 µM.
The corresponding values for `CC1=NN(c2ccccc2)C(=O)C12C=CC(=O)C=C2c1ccccc1` (stereo unspecified) are 16.5 µM, 17.8 µM and 27.4 µM.
The corresponding values for `CC1=NN(c2ccc(Cl)cc2)C(=O)C12C=CC(=O)C=C2c1ccc(C)cc1` (stereo unspecified) are 33.4 µM, 10.3 µM and 14.3 µM.
For `CC1=NN(c2ccc(Br)cc2)C(=O)C12C=CC(=O)C=C2c1cccc(C)c1` (stereo unspecified) the same measures were 45.4 µM, greater than 100 µM and 2.89 µM.
Turning to `CC1=NN(c2ccc(Br)cc2)C(=O)C12C=CC(=O)C=C2c1ccccc1` (stereo unspecified), the IC50 in [6], in [8] and in [12] was greater than 100 µM throughout.
With `CC1=NN(c2ccc(Cl)cc2)C(=O)C12C=CC(=O)C=C2c1cccc(C)c1` (stereo unspecified), the values for the IC50 in experiment [6], in experiment [8] and in experiment [12] were 38.4 µM, 13.3 µM and 26.9 µM, respectively.
Take `CC1=NN(c2ccc(C)cc2)C(=O)C12C=CC(=O)C=C2c1cccc(C)c1` (stereo unspecified): the IC50 in experiment [6] was 22.5 µM; in [8], 8.34 µM; in [12], 19.4 µM.
The corresponding values for `CC1=NN(c2ccc(C)cc2)C(=O)C12C=CC(=O)C=C2c1ccc(C)cc1` (stereo unspecified) are 37 µM, 9.71 µM and 5.11 µM.
For `CC1=NN(c2cccc(Cl)c2)C(=O)C12C=CC(=O)C=C2c1ccccc1` (stereo unspecified) the same measures were 18.8 µM, 7 µM and 30.1 µM.
In the case of `CC1=NN(c2ccc(Br)cc2)C(=O)C12C=CC(=O)C=C2c1ccc(C)cc1` (stereo unspecified), the IC50 in experiment [6] stood at 27.4 µM; in experiment [8] it was 10.6 µM; in experiment [12] it was 15.9 µM.
Take `CC1=NN(c2ccc(Cl)cc2)C(=O)C12C=CC(=O)C=C2c1ccccc1` (stereo unspecified): the IC50 in experiment [6], in experiment [8] and in experiment [12] was greater than 100 µM in each case.
As to `CC1=NN(c2cccc(Cl)c2)C(=O)C12C=CC(=O)C=C2c1cccc(C)c1` (stereo unspecified), the IC50 was determined as 20.1 µM in experiment [6], 3.74 µM in experiment [8] and 22.3 µM in experiment [12].
